Source: US12642269B2, “Hydrogels as carriers of active ingredients and methods of producing the same” (WinField Solutions, LLC, priority 2018, dated 2026)

Assays:
gumbo plants [1] = assay: Example 4: herbicide-induced plant injury or death from precursor mixtures of different lactose to methacrylic anhydride ratios, visual rating; assay type: in vivo; details: 14 days after spraying; glyphosate about 2.34% v/v, 10 gallons spray solution per acre; greenhouse; 100% = total death
Method: Release of an herbicide from loaded hydrogels was indirectly studied by examining plant injury or death. Hydrogel precursor mixtures were prepared according to the method 200 illustrated in FIG. 2. The precursor mixture was prepared at a lactose to methacrylic anhydride ratio of 1:0.5, 1:0.25, or 1:0.1 (test groups).
Glyphosate (as Touchdown HiTech®, Syngenta) alone (control group) or glyphosate plus hydrogel precursor mixture (test groups) was added to water to form a spray solution. The amount of glyphosate in spray solution was approximately the same (i.e., about 2.34% v/v) for each control and test group. Test groups also included one of the hydrogel precursor mixtures at 5% v/v. Each group included five gumbo plants in a greenhouse. Control or test groups were sprayed at 10 gallons of spray solution per acre. In the test groups, the hydrogel precursor mixtures plus glyphosate were allowed to crosslink in ambient conditions after application to the plants.
Plant injury or death, from direct glyphosate application (control) or release of glyphosate from carrier hydrogels (tests), was measured after 14 days by a visual rating system. Results are presented in FIG. 5 as plant injury or death as a percentage, where “100% control” represents total death of a plant. The same letter attributed to more than one group indicates no statistically significant difference between those groups. […]

gumbo plants [2] = assay: Example 3: herbicide-induced plant injury or death from carrier hydrogel precursor mixtures applied to plants, visual rating; assay type: in vivo; details: 14 days after spraying; glyphosate about 2.34% v/v, 10 gallons spray solution per acre; greenhouse; 100% = total death
Method: Release of an herbicide from loaded hydrogels was indirectly studied by examining plant injury or death. Hydrogel precursor mixtures were prepared according to the method 200 illustrated in FIG. 2. The precursor mixture was prepared at a lactose to methacrylic anhydride ratio of 1:0.5.
Glyphosate (as Touchdown HiTech®, Syngenta) alone (control group) or glyphosate plus hydrogel precursor mixture (test groups) was added to water to form a spray solution. The amount of glyphosate in a spray solution was approximately the same (i.e., about 2.34% v/v) for each control and test group. Test groups also included hydrogel precursor mixture at 5% v/v, 10% v/v, 20% v/v, 25% v/v, or 50% v/v of spray solution. Each group included five gumbo plants in a greenhouse. Control or test groups were sprayed at 10 gallons of spray solution per acre. In the test groups, the hydrogel precursor mixtures plus glyphosate were allowed to crosslink in ambient conditions after application to the plants.
Plant injury or death, from direct glyphosate application (control) or release of glyphosate from carrier hydrogels (tests), was measured after 14 days by a visual rating system. Results are presented in FIG. 5 as plant injury or death as a percentage, where “100% control” represents total death of a plant. […]

O=C(O)CNCP(=O)(O)O [Glyphosate, N-(phosphonomethyl)glycine]
Plant injury or death (average damage on plants) (gumbo plants [1]): 55%
Plant injury or death (average damage on plants) (gumbo plants [2]): 85%
